Source: BigSolDB 2.1

CC(=O)C1=CC[C@H]2[C@@H]3CCC4=CC(=O)C=C[C@]4(C)[C@H]3[C@@H](O)C[C@]12C
solubility (mole fraction)
Conditions | in acetone | in ethanol
298.15 K | 0.00192 | 0.00213
303.15 K | 0.00215 | 0.00252
308.15 K | 0.00243 | 0.00291
313.15 K | 0.00275 | 0.00335
318.15 K | 0.00303 | 0.00395
323.15 K | 0.00351 | 0.00461
328.15 K | 0.0038 | 0.00541
333.15 K | – | 0.00625
338.15 K | – | 0.00722
343.15 K | – | 0.00844
348.15 K | – | 0.0097
